Where no end group is shown, it is not given here.

For this test, the target named is T1, γ-secretase (Homo sapiens, UniProt P49768).
T1 construct: The solubilized membrane preparations of A549 (16.5 µg total protein) were incubated with 100 µM LMDP or LMDP-lipo; endogenous in cells; host or cells: A549 cells, CHAPSO-solubilized membrane fraction
Kind of test: Cleavage of fluorescence-quenching substrate peptide probe by γ-secretase in solubilized A549 membrane fraction (competitive inhibition / inhibitor test). In kind it is biochemical. The procedure: The membrane fraction was prepared according to previous reports. All procedures were carried out on ice. Cultured HeLa cells, A549 cells, MCF-7 cells and HUEhT-2 cells (about 1×10^8 cells) were pelleted. Cells were resuspended in a buffer containing 20 mM Hepes, pH 7.5, 50 mM KCl, 2 mM EGTA, and protease inhibitor cocktail, Complete Mini (Roche Applied Science), and homogenized using 15 strokes of a Dounce homogenizer with a tight pestle. The cellular homogenates were centrifuged at 800 × g for 10 min and rehomogenized as above. […] The total protein concentration was determined with a BCA Protein Assay Kit (Thermo scientific).
To measure γ-secretase activity, solubilized membrane preparations ([…] total protein) were incubated with eight µM fluorescence-quenching peptide substrate at 37°C overnight and centrifuged at 16,100 × g for 15 min. The fluorescence of supernatants was measured by Plate Infinite M200 (TECAN) with an excitation wavelength of 355 nm and emission wavelength of 440 nm.
To study LMDP cleavage by γ-secretase, the competitive inhibitory effect of LMDP or LMDP-lipo on the cleavage of the peptide substrate (the same as that used in 2.2) was evaluated. […] Then, the fluorescence intensity was measured as described in 2.2. […]

Turning to `C[C@H](NC(=O)Cc1cc(F)cc(F)c1)C(=O)N[C@H](C(=O)OC(C)(C)C)c1ccccc1` [DAPT, N-[N-(3,5-Difluorophenacetyl)-L-alanyl]-S-phenylglycine t-butyl ester], under “A549 membrane fraction preincubated with DAPT 37°C 30 min, then substrate peptide probe 37°C overnight (Fig. S3)”, the “Inhibition of γ-secretase activity” value is recorded as “about 60%”.
One may read the IC50 as the point on the concentration scale where inhibition reaches its midpoint. For the compound LHLMYVAAAAFVLLFFVGCGVLLSRKRRR [LMDP], the IC50 (A549 solubilized membrane 16.5 µg protein, 5 µM peptide substrate, 0-100 µM LMDP, 37°C overnight, fluorescence ex 355/em 440 nm, n = 3, read-out: IC50, competitive inhibition of cleavage of fluorescent substrate peptide probe) is 29 µM.

Source of the values: PMC4208851, “Development of Nanoparticles Incorporating a Novel Liposomal Membrane Destabilization Peptide for Efficient Release of Cargos into Cancer Cells” (PLoS ONE, 2014).
